Assay results reported in patent US11000501B2, “Composition for preventing or treating neurological and mental disorders, containing syringaresinol” (SEOUL NATIONAL UNIVERSITY R&DB FOUNDATION, priority 2016, dated 2021).

Tests used:
ERK = experiment: Western blot of ERK activity (p-ERK/ERK) in hippocampal slices; format: cell-based, mouse; conditions: 100, 300 and 500 μM, 10 minutes treatment
Method: After removing the CA3 region from the hippocampal slice surgically, the slices were recovered in the 36° C. and normal ACSF for 4 hours. Each sample was treated with each drug for 10 minutes, and then frozen using liquefied nitrogen. Western blot analysis of drug-induced changes in ERK activity in the hippocampal slices was performed in a manner as previously described (Song et al., 2017). The slices were homogenized using a probe sonicator in a cold lysis buffer about at a temperature of ice. The lysis buffer contained 50 mM HEPES, 100 mM NaCl, 5 mM EGTA, 5 mM EDTA, 1% Triton X-100, a phosphatase inhibitor mixer (GenDEPOT, TX, USA) and a protease inhibitor mixer (Sigma-Aldrich, MO, USA). The total protein concentration of the homogenate was determined by Bradford protein assay (Bio-Rad, CA, USA). Samples containing 10 to 12 μg of protein were separated using SDS-PAGE gels and transferred to the nitrocellulose membrane. The membrane was sequentially reacted with a primary antibody (p-ERK and ERK; Cell Signaling Technologies, MA, USA) and a secondary antibody (Jackson ImmunoResearch, USA) having horse radish peroxidase (HRP) coupled thereto. HRP signals were detected on an enhanced chemiluminescence (ECL) substrate (GE Healthcare, UK) and then quantified with MetaMorph software (Molecular Devices, CA, USA). […]

[1] = test system: SC-CA1 synapse synaptic vesicle pool; experiment: Readily releasable pool (RRP) size by cumulative amplitude analysis, 20 Hz train; format: cell-based, mouse; conditions: 100 μM; 80 stimuli at 20 Hz
Method: Previous studies have shown that the secretion probability is regulated by the size of the readily releasable pool (RRP) of hippocampal neurons. Therefore, RRP was measured before and after treatment with SYR (100 μM). A high-frequency train (20 Hz) composed of more than 60 stimuli was prepared. 80 stimuli at 20 Hz was applied to completely remove RRP from the SC-CA1 synapse. RRP size was measured by cumulative amplitude analysis (Stevens and Williams, 2007; Wesseling and Lo, 2002). In the presence of AP-5 and picrotoxin, SYR inhibited AMPAR-EPSC (FIG. 5A and FIG. 5B). […] An extent by which RRP size is reduced was very close to an extent by which synapse is inhibited (FIG. 5B and FIG. 5F). […] This means that a decrease in RRP size may lead to the SYR-induced synapse decrease.

[2] = test system: CA1 neurons (inhibitory synaptic transmission); experiment: Miniature IPSC (mIPSC) recording in CA1 neurons; format: cell-based, mouse
Method: (§1) A miniature EPSC (mEPSC) was measured at −70 mV with a pipette solution. In this connection, the pipette solution contained 110 mM K-gluconate, 20 mM KCl, 8 mM NaCl, 10 mM HEPES, 0.5 mM QX-314-C1, 4 mM Mg-ATP, 0.3 mM Na-GTP and 0.5 mM EGTA. The solution had pH 7.25 and 290 mOsm/kg. Voluntary action potentials and IPSCs were blocked by TTX (1 μM) and picrotoxin (50 μM), respectively. For mIPSC recording, the K-gluconate in the pipette solution was replaced with the KCl having the same number of moles as the K-gluconate.
The effect of SYR on the miniature IPSC (mIPSC) was checked.

CA1 neurons = experiment: Miniature EPSC (mEPSC) recording in CA1 neurons; format: cell-based, mouse
Method: as §1
Next, the effect of SYR on miniature EPSC (mEPSC) in CA1 neurons was examined.

Open field test = format: in vivo, mouse; conditions: 10 mg/kg intraperitoneally, test 30 minutes after injection, 30-minute test
Method: All experiments were performed using male and female C57BL/6 mice of 4 to 6 weeks of age. An open field test was performed on male mice of 6 to 7 weeks. Animals were maintained with circulating 12/12-h day/night, while daytime starts at 07:00. Three or five animals were housed per one cage. Free available food and water were fed to the mice under specific pathogenic-microorganism free (SPF) conditions. The animal maintenance protocol and all experimental procedures were approved by the Institutional Animal Care and Use Committee (IACUC) of Seoul National University.
In an open field test, we video-recorded a movement of a 7 to 10-week-old mouse in a white plastic chamber (40×40×40 cm) in a darkened room for 30 minutes. Then, the moving distance of the mouse was measured using Ethovision XT (Noldus) software.
To determine the change of the activity of the mice by syringaresinol, we injected syringaresinol at a concentration of 10 mg/kg intraperitoneally into the mice. After 30 minutes, we measured the activity of the mice via an open field test. In this connection, control was injected with DMSO, a solvent used for dissolving syringaresinol. The open field test was conducted for 30 minutes. The activity of the mouse was checked at a 5-minute interval. Further, during the 30-minute test, the total movement distance of the mouse was measured.

[3] = test system: CA1 neurons (inhibitory synaptic transmission); experiment: Evoked IPSC (eIPSC) recording in CA1 neurons; format: cell-based, mouse; conditions: 100 μM
From the text: A stimulating electrode was placed on a radiating layer or a pyramidal cell layer near the target cell. […] […] During eEPSC or eIPSC recording, series resistance and seal resistance were continuously observed using short hyperpolarization pulses (−5 mV, 50 ms). When the resistance was changed by more than 20% during recording, the data was discarded.
SYR […] inhibitory synaptic transmission in CA1 neurons. […] There was no difference between the first eIPSC (t=−0.47, p>0.05) and the second eIPSC (t=−0.33, p>0.05) as measured before and after the application of SYR respectively.

[4] = test system: Ca^2+ channel in CA1 neurons; experiment: Ca2+ channel current (Ba2+ current) recording in CA1 neurons; format: cell-based, mouse; conditions: 100 μM; depolarization −90 mV to −10 mV, 50 ms

COc1cc(C2OCC3C(c4cc(OC)c(O)c(OC)c4)OCC23)cc(OC)c1O (stereo not shown) [SYR, syringaresinol]
ERK activity (ERK): did not affect ERK activity | RRP size [1]: significant decrease | amplitude of mIPSC [2]: did not affect | frequency of mIPSC [2]: did not affect | mEPSC amplitude (CA1 neurons): did not change | mEPSC frequency (CA1 neurons): did not change | activity of the mouse as fraction of control (movement distance) (Open field test): ¼ | ratio of IPSC amplitude induced by paired-pulse stimulation (PPR) ([3]; 100 ms interval): did not change | eIPSC amplitude (first and second) ([3]; in presence of NBQX and AP-5): had no effect on eIPSC | Ba^2+ current mediated by the Ca^2+ channel [4]: rapidly reduced
